Where a SMILES comes first, the peptide text is derived from it. [ ]: non-standard residue; d: D form. The star is where a group is joined. X1 = Cc1c(CC(=O)O)c(=O)oc2cc(N*)ccc12; Cbz = O=C(OCc1ccccc1)*; NMeA = CN[CH](C)C(=O)O; Sar = CNCC(=O)O
target: T1, FAP (cell extract from 293 cells stably transfected with FAP) (Homo sapiens, UniProt Q12884); experiment: Assay for cleavage of AMCA substrates by FAP; type: biochemical; details: 1 ng FAP enzyme, 20 μl 2.5 mM substrate in 100 μl, room temperature, 1 hour; FAP-negative 293 control extract subtracted
T1 construct: Cell extract from 293 cells stably transfected with FAP prepared as described; expressed in transfected cells; host or cells: human embryonic kidney 293 cells (clone 293-I/2), vector pFAP.38
T1 sequence (Q12884 1-760): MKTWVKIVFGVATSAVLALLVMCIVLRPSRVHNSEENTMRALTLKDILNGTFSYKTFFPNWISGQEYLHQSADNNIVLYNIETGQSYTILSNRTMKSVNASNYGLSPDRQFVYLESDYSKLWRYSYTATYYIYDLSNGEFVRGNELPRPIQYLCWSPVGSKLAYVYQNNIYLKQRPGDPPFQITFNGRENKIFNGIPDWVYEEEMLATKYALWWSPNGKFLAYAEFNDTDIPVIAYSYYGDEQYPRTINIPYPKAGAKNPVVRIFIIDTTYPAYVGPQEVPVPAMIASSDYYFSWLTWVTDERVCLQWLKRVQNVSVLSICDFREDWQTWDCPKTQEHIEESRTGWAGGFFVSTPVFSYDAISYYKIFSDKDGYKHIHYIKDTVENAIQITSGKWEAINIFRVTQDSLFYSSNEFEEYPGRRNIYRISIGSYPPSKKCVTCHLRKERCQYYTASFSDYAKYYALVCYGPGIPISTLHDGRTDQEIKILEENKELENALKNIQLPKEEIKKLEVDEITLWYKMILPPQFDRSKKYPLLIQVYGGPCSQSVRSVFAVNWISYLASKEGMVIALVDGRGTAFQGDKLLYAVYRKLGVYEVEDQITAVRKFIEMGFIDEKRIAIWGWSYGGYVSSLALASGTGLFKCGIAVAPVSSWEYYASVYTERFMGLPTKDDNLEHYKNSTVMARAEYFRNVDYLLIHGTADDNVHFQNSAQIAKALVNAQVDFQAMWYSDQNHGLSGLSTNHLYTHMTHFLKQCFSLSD
Experimental: The turnover and cleavage rate have been determined with the aid pf the following assay:
Assay for cleavage of AMCA substrates by FAP
Cell extract from 293 cells stably transfected with FAP prepared as described (see Park, et al., Fibroblast Activation Protein, a Dual Specificity Serine Protease expressed in human tumor stromal fibroblasts. (1999) J. Biol. Chem. 36505-12.). A similar extract was also prepared from parental 293 control cells without FAP. The FAP concentration in the FAP-transfected cell extract was estimated by immunoassay and 1 ng enzyme (diluted in buffer A) was used per assay. FAP-negative 293 control cell extract was used at the same dilution (also in buffer A) as a negative control. Substrate was initially dissolved in dimethylformamide at a concentration of 200 mM and diluted in buffer A to a final concentration of 2.5 mM. A few substrates were not soluble at this concentration and had to be diluted further.
10 μl 10% DMSO in buffer A
70 μl diluted FAP cell extract containing 1 ng FAP enzyme (OR control 293 cell extract without FAP)
Mix, incubate at room temperature for 1 hour, and measure fluorescence in Fluorostar fluorimeter at the following wavelengths:
AMCA conjugates: Excitation: 390 nm, Emission: 440 nm.
The fluorescence measured in the samples treated with control 293 control cell extracts without FAP is subtracted from the values measured in the samples treated with 1 ng FAP enzyme.

Row | SMILES | Cleavage | Turnover
1 | Cc1c(CC(=O)O)c(=O)oc2cc(NC(=O)CN(C)C(=O)CNC(=O)OCc3ccccc3)ccc12 [Z-Gly-Sar-AMCA, Z-Gly-Sar-AMCA-OH] | 0,22 μM | 0,044%
2 | Cc1c(CC(=O)O)c(=O)oc2cc(NC(=O)C(C)N(C)C(=O)CNC(=O)C(C)NC(=O)C3CCCN3C(=O)OCc3ccccc3)ccc12 (stereo not drawn) [Z-Pro-Ala-Gly-MeAla-AMCA] (Cbz-PAG[NMeA]-X1; configuration not given here) | 0,11 μM | 0,044%
3 | Cc1c(CC(=O)O)c(=O)oc2cc(NC(=O)CN(C)C(=O)CNC(=O)C(C)NC(=O)C3CCCN3C(=O)OCc3ccccc3)ccc12 (stereo not drawn) [Z-Pro-Ala-Gly-Sar-AMCA] (Cbz-PAG[Sar]-X1; configuration not given here) | 0,09 μM | 0,036%

Reference: patent publication US20020155565A1, “FAP-activated anti-tumor compounds” (priority 2000, published 2002)
